Columns and labels:
Assay in all cases: Kinase panel assay (SelectScreen Kinase Profiling, Invitrogen)
Assay type in all cases: biochemical
Conditions in all cases: 1000 nM of compound B26
RET = RET (Homo sapiens, UniProt P07949)
Protocol: (§1) The kinase panel assay of compound B26 of this invention was performed by SelectScreen® Kinase Profiling Services of Invitrogen. The inhibitory effects of 1000 nM of compound B26 against various kinases whom shown >50% inhibitory effects are summarized in following Table 5.

FGFR3 K650E = FGFR3 K650E (Homo sapiens, UniProt P22607, K650E)
Protocol: as §1

SRC = SRC (Homo sapiens, UniProt P12931)
Protocol: as §1

RET Y791F = RET Y791F (Homo sapiens, UniProt P07949, Y791F)
Protocol: as §1

NTRK1 (TRKA) = NTRK1 (TRKA) (Homo sapiens, UniProt P04629)
Protocol: as §1

LCK = LCK (Homo sapiens, UniProt P06239)
Protocol: as §1

FLT3 D835Y = FLT3 D835Y (Homo sapiens, UniProt P36888, D835Y)
Protocol: as §1

FGFR3 = FGFR3 (Homo sapiens, UniProt P22607)
Protocol: as §1

FGR = FGR (Homo sapiens, UniProt P09769)
Protocol: as §1

AMPK A1/B1/G1 = AMPK A1/B1/G1 (Homo sapiens, UniProt Q13131)
Protocol: as §1

BLK = BLK (Homo sapiens, UniProt P51451)
Protocol: as §1

FGFR2 = FGFR2 (Homo sapiens, UniProt P21802)
Protocol: as §1

YES1 = YES1 (Homo sapiens, UniProt P07947)
Protocol: as §1

FGFR1 = FGFR1 (Homo sapiens, UniProt P11362)
Protocol: as §1

NTRK3 (TRKC) = NTRK3 (TRKC) (Homo sapiens, UniProt Q16288)
Protocol: as §1

KDR (VEGFR2) = KDR (VEGFR2) (Homo sapiens, UniProt P35968)
Protocol: as §1

SRC N1 = SRC N1 (Homo sapiens, UniProt P12931)
Protocol: as §1

NTRK3 (TRKC), sequence (Q16288 32-839): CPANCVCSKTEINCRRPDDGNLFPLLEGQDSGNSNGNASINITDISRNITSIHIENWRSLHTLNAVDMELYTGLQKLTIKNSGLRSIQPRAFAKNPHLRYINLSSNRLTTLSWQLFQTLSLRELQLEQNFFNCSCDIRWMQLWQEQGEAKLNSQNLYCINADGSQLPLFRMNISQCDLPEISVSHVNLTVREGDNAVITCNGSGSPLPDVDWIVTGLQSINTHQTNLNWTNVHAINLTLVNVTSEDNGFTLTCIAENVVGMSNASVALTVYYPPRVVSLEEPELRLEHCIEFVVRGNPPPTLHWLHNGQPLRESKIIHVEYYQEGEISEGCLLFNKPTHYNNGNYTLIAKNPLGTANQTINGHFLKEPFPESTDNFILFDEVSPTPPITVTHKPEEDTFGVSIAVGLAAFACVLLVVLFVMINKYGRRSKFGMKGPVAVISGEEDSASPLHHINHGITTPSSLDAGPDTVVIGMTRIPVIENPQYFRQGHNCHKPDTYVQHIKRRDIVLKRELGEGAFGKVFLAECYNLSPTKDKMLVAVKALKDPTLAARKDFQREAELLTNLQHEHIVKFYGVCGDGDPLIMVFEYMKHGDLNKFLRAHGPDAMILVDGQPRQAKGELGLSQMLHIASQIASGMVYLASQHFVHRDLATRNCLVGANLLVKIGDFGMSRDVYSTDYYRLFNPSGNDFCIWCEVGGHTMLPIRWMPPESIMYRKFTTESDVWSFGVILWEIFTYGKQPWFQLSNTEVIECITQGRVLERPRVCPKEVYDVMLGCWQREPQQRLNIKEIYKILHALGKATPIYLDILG
SRC N1, sequence (P12931 1-542 isoform P12931-2): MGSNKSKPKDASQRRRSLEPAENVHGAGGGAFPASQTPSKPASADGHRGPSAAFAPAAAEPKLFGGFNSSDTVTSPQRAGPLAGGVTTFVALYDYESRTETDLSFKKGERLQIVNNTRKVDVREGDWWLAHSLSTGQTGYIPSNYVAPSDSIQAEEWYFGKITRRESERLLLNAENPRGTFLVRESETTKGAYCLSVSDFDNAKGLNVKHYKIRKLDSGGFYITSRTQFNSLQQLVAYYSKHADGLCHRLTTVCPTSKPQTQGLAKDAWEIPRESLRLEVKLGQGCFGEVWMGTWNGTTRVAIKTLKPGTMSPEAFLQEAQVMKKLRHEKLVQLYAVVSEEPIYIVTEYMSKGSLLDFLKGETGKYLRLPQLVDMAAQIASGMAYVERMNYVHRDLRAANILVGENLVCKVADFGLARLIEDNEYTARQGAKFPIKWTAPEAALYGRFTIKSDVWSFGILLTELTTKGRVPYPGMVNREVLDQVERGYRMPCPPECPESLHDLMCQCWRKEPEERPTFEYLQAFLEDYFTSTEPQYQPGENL
NTRK1 (TRKA), sequence (P04629 33-796): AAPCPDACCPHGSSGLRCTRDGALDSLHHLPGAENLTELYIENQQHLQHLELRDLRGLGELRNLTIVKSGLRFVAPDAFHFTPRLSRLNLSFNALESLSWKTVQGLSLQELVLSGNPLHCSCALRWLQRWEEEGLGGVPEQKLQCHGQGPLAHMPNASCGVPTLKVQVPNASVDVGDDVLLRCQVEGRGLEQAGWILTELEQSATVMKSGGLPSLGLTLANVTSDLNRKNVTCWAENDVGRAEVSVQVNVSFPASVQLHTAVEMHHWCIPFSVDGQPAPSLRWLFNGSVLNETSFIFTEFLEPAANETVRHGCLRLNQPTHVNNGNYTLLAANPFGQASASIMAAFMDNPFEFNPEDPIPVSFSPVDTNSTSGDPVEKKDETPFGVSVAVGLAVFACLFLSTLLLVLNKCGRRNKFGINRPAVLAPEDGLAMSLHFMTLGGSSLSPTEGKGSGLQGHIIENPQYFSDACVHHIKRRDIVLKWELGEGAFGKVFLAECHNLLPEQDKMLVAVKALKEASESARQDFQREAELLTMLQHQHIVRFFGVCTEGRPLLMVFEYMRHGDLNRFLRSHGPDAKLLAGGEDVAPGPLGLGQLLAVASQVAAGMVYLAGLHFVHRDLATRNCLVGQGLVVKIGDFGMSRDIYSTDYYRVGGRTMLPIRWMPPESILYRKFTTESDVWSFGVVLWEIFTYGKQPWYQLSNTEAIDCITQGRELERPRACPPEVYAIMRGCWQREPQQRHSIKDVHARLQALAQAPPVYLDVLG
SRC, sequence (P12931 whole entry): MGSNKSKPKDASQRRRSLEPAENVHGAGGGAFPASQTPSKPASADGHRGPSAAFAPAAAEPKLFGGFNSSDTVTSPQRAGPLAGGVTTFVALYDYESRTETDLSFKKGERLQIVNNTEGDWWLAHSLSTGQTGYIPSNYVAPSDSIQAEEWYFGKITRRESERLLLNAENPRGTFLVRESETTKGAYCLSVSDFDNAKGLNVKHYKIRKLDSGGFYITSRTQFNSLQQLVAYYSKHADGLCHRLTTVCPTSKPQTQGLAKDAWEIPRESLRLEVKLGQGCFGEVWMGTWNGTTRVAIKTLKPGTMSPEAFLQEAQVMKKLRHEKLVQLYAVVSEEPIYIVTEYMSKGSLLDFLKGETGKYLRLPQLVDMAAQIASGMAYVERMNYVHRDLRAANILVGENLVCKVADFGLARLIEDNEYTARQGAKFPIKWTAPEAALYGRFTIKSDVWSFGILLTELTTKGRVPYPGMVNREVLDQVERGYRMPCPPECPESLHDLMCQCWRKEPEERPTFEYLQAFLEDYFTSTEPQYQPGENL
LCK, sequence (P06239 whole entry): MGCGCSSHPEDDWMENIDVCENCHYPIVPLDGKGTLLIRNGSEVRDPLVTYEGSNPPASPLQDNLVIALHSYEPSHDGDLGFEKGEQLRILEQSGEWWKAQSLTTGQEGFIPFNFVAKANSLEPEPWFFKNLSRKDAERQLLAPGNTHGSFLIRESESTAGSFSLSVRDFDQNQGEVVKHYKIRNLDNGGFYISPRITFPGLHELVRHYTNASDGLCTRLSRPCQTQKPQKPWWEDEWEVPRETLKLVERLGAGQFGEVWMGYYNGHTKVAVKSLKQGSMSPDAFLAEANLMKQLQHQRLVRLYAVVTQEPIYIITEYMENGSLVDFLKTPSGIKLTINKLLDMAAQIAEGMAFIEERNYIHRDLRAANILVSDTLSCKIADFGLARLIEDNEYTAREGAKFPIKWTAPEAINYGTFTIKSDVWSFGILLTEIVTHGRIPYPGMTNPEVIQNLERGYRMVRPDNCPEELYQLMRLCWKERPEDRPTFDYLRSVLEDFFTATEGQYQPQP
FGFR3, sequence (P22607 23-806): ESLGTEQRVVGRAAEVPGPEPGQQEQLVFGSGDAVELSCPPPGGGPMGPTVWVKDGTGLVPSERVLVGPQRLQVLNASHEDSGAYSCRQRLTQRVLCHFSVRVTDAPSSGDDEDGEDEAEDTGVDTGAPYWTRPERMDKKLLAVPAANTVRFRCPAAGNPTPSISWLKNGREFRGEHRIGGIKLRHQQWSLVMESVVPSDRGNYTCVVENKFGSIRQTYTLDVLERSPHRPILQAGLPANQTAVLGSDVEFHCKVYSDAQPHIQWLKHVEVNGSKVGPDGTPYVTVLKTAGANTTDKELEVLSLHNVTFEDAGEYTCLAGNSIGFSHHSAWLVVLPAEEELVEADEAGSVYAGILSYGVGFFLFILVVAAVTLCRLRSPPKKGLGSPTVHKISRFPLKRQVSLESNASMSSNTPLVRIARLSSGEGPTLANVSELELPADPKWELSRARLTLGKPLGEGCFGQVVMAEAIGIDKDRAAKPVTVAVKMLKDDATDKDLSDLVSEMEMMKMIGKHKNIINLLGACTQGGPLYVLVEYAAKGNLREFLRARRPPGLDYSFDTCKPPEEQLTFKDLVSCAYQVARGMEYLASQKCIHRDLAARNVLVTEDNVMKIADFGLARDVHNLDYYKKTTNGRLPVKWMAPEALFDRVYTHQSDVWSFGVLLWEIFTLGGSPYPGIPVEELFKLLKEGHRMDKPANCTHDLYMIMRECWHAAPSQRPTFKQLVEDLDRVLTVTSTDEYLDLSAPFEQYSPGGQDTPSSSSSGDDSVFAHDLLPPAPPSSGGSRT
FGR, sequence (P09769 whole entry): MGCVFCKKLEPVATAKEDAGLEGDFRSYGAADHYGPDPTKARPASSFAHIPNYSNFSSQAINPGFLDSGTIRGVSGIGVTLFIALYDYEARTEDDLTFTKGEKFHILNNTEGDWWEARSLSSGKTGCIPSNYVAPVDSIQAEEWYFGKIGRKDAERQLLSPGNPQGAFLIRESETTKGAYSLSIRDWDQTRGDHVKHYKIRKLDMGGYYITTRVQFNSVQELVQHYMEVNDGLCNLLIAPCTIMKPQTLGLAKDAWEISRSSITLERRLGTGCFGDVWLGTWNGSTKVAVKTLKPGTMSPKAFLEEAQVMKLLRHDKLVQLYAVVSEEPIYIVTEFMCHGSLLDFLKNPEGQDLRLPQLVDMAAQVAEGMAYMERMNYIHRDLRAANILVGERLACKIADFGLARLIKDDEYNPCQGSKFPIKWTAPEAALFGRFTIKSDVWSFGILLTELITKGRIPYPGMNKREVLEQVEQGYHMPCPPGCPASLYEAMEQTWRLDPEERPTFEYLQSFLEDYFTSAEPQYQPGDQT
BLK, sequence (P51451 whole entry): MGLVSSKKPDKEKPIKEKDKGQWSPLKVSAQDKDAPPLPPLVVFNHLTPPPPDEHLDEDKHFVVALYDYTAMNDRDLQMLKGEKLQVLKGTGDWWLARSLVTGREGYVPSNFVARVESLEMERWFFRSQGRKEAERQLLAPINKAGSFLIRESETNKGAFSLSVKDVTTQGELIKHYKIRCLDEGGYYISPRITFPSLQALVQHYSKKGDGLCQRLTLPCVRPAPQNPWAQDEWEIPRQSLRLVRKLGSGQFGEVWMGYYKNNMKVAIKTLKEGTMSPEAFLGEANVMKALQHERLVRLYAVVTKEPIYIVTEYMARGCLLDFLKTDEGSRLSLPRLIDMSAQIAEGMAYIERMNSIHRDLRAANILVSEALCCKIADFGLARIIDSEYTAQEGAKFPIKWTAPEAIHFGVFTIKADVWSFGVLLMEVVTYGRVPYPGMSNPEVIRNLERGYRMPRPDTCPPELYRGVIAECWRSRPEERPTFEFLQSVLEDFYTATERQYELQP
FGFR3 K650E, sequence (P22607 23-806 K650E): as the sequence (P22607 23-806) above, with K628E counted along it

**Q.** Which inhibition at 1 µM (RET) does the source give for `CN1CCN(c2ccc3[nH]c(-c4c5cccccc-5[nH]c4=O)nc3c2)CC1` [Compound B26] here?
**A.** The inhibition at 1 µM was 81%.

**Q.** What about the inhibition at 1 µM (FGFR3 K650E) of the same molecule?
**A.** The inhibition at 1 µM was 47%.

**Q.** And the inhibition at 1 µM (SRC)?
**A.** Its inhibition at 1 µM is 50%.

**Q.** What about the inhibition at 1 µM (RET Y791F) of the same molecule?
**A.** The inhibition at 1 µM was 79%.

**Q.** What about the inhibition at 1 µM (NTRK1 (TRKA)) of the same molecule?
**A.** The inhibition at 1 µM was 89%.

**Q.** What about the inhibition at 1 µM (LCK) of the same molecule?
**A.** The inhibition at 1 µM was 63%.

**Q.** And the inhibition at 1 µM (FLT3 D835Y)?
**A.** Its inhibition at 1 µM is 98%.

**Q.** What about the inhibition at 1 µM (FGFR3) of the same molecule?
**A.** Its inhibition at 1 µM is 62%.

**Q.** And the inhibition at 1 µM (FGR)?
**A.** The inhibition at 1 µM was 69%.

**Q.** What about the inhibition at 1 µM (AMPK A1/B1/G1) of the same molecule?
**A.** The inhibition at 1 µM was 88%.

**Q.** And the inhibition at 1 µM (BLK)?
**A.** The inhibition at 1 µM was 52%.

**Q.** And the inhibition at 1 µM (FGFR2)?
**A.** The inhibition at 1 µM was 48%.

**Q.** And the inhibition at 1 µM (YES1)?
**A.** Its inhibition at 1 µM is 73%.

**Q.** What about the inhibition at 1 µM (FGFR1) of the same molecule?
**A.** The inhibition at 1 µM was 54%.

**Q.** What about the inhibition at 1 µM (NTRK3 (TRKC)) of the same molecule?
**A.** The inhibition at 1 µM was 76%.

**Q.** What about the inhibition at 1 µM (KDR (VEGFR2)) of the same molecule?
**A.** The inhibition at 1 µM was 64%.

**Q.** And the inhibition at 1 µM (SRC N1)?
**A.** The inhibition at 1 µM was 52%.
